{
  "source": "patent US20210161950A1",
  "about": "“Veterinary Supplement for Effecting Bone and Cartilage” (priority 2017, published 2021)",
  "origin": "cited, not measured here",
  "key": {"[1]": {"test_system": "degenerated cartilage of the mandibular joint", "settings": "oral strontium"}, "osteoarthritis": {"test_system": "osteoarthritis", "settings": "meta-analysis"}},
  "data": [
    {"smiles": "[Sr+2]", "note": "[strontium]", "values": [
      {"measurement": "cartilage thickness and cell density", "setting": "[1]", "value": "increased cartilage thickness and cell density"},
      {"measurement": "expression of cartilage catabolic factors and pro-inflammatory cytokines", "setting": "[1]", "value": "decreased expression"},
      {"measurement": "expression of cartilage matrix molecules such as Collagen II and aggrecan", "setting": "[1]", "value": "increased expression"},
      {"measurement": "subchondral bone loss and mandibular condylar cartilage degradation", "setting": "[1]", "value": "reversed"}
    ]},
    {"smiles": "N[C@H]1C(O)O[C@H](CO)[C@@H](O)[C@@H]1O", "note": "(stereo partly drawn) [glucosamine]", "values": [
      {"measurement": "new bone formation and osteoblast lining", "setting": "bone fractures in rats; glucosamine-treated rats compared to control groups", "value": "significantly higher"},
      {"measurement": "healing time of bone fractures", "setting": "bone fractures in rats; rats", "value": "helped accelerate the healing time"},
      {"measurement": "mobility of joints", "setting": "osteoarthritis", "value": "Improves mobility of joints"},
      {"measurement": "osteoarthritis progression", "setting": "osteoarthritis", "value": "Reduces osteoarthritis progression"},
      {"measurement": "pain", "setting": "osteoarthritis", "value": "Reduces pain"},
      {"measurement": "risk of total joint replacement", "setting": "osteoarthritis", "value": "Reduces risk of total joint replacement"}
    ]},
    {"smiles": "N[C@H]1C(O)O[C@H](CO)[C@@H](O)[C@@H]1O.O=S(=O)(O)O", "note": "(stereo partly drawn) [glucosamine sulfate]", "values": [
      {"measurement": "connective tissue surrounding bones", "setting": "bone fractures in rats; rats, after 4 weeks of 230 milligrams glucosamine sulfate daily", "value": "more cellular and vascular"},
      {"measurement": "strength of newly formed, previously fractured bones", "setting": "bone fractures in rats; rats, after 4 weeks of 230 milligrams glucosamine sulfate daily, compared to controls", "value": "stronger compared to controls"}
    ]}
  ]
}
